The NIST ThermoML archive (doi:10.1016/j.fluid.2014.12.040)

Test: xn = mol fraction of the nth substance listed
Details: for surface tension liquid-gas: Wilhelmy-plate method; for mass density: 100 kPa, Liquid, Vibrating tube method

CC(O)CO (stereo not given) [1,2-propanediol] + O
Details	mass density, 298.15 K [kg/m3]	mass density, 308.15 K [kg/m3]	mass density, 318.15 K [kg/m3]	mass density, 328.15 K [kg/m3]	surface tension liquid-gas, 298.15 K [mN/m]	surface tension liquid-gas, 308.15 K [mN/m]	surface tension liquid-gas, 318.15 K [mN/m]	surface tension liquid-gas, 328.15 K [mN/m]
x1 = 0.05	1011.79	1007.53	1002.61	997.16	56.18	54.93	53.89	52.6
x1 = 0.1	1022.73	1017.48	1011.69	1005.39	50.94	49.9	48.9	47.83
x1 = 0.15	1030.33	1024.23	1017.73	1010.88	47.41	46.53	45.71	44.66
x1 = 0.2	1035.27	1028.47	1021.65	1014.32	45.19	44.36	43.45	42.52
x1 = 0.25	1038.27	1031.17	1023.85	1016.27	43.64	42.89	42.15	41.17
x1 = 0.3	1039.85	1032.55	1025.01	1017.25	42.6	41.92	41.19	40.38
x1 = 0.35	1040.55	1033.05	1025.42	1017.54	41.43	40.86	40.19	39.49
x1 = 0.4	1040.6	1033.02	1025.34	1017.47	40.47	39.78	39.24	38.57
x1 = 0.45	1040.28	1032.76	1025.05	1017.1	39.44	38.89	38.36	37.8
x1 = 0.5	1039.83	1032.3	1024.54	1016.59	38.76	38.27	37.73	37.19
x1 = 0.55	1039.24	1031.7	1023.93	1016	37.95	37.5	37.07	36.55
x1 = 0.6	1038.53	1031.03	1023.29	1015.39	37.4	36.94	36.63	36.15
x1 = 0.65	1037.84	1030.31	1022.58	1014.69	36.98	36.57	36.15	35.75
x1 = 0.7	1037.09	1029.56	1021.87	1014	36.8	36.35	35.89	35.53
x1 = 0.75	1036.33	1028.81	1021.11	1013.3	36.62	36.24	35.79	35.32
x1 = 0.8	1035.57	1028.06	1020.37	1012.54	36.44	36.1	35.66	35.17
x1 = 0.85	1034.81	1027.32	1019.61	1011.8	36.26	35.94	35.52	35.04
x1 = 0.9	1034.08	1026.59	1018.9	1011.06	36.08	35.76	35.4	34.88
x1 = 0.95	1033.35	1025.88	1018.19	1010.37	35.9	35.52	35.14	34.75
x1 = 1	1032.69	1025.21	1017.51	1009.78	35.74	35.35	34.96	34.6

CC(O)CO (stereo not given) [1,2-propanediol] + CC(C)O
Details	mass density, 298.15 K [kg/m3]	mass density, 308.15 K [kg/m3]	mass density, 318.15 K [kg/m3]	mass density, 328.15 K [kg/m3]	surface tension liquid-gas, 298.15 K [mN/m]	surface tension liquid-gas, 308.15 K [mN/m]	surface tension liquid-gas, 318.15 K [mN/m]	surface tension liquid-gas, 328.15 K [mN/m]
x2 = 0	1032.69	1025.21	1017.51	1009.78	35.74	35.35	34.96	34.6
x2 = 0.05	1020.3	1012.75	1005.08	997.4	32.86	32.56	32.35	32.15
x2 = 0.1	1007.84	1000.22	992.51	984.7	31.27	30.98	30.74	30.54
x2 = 0.15	995.3	987.63	979.84	971.99	30.1	29.77	29.48	29.26
x2 = 0.2	982.74	974.98	967.11	959.2	29.09	28.74	28.42	28.18
x2 = 0.25	970.17	962.34	954.39	946.41	28.21	27.85	27.51	27.25
x2 = 0.3	957.54	949.69	941.69	933.61	27.43	27.04	26.68	26.4
x2 = 0.35	944.87	936.95	928.9	920.73	26.72	26.31	25.94	25.64
x2 = 0.4	932.21	924.2	916.09	907.91	26.06	25.64	25.25	24.93
x2 = 0.45	919.52	911.47	903.3	895.1	25.43	25.01	24.64	24.3
x2 = 0.5	906.84	898.7	890.5	882.26	24.89	24.47	24.05	23.71
x2 = 0.55	894.16	885.97	877.7	869.44	24.39	23.94	23.52	23.16
x2 = 0.6	881.5	873.25	865	856.69	23.89	23.44	23.01	22.64
x2 = 0.65	868.82	860.56	852.29	843.93	23.43	22.95	22.51	22.12
x2 = 0.7	856.16	847.8	839.59	831.21	22.99	22.49	22.03	21.62
x2 = 0.75	843.49	835.09	826.8	818.53	22.58	22.04	21.56	21.13
x2 = 0.8	830.89	822.4	813.99	805.71	22.2	21.63	21.11	20.65
x2 = 0.85	818.33	809.75	801.22	792.81	21.82	21.21	20.66	20.16
x2 = 0.9	805.84	797.18	788.63	780.09	21.47	20.82	20.23	19.68
x2 = 0.95	793.45	784.7	776.1	767.47	21.12	20.43	19.8	19.21
